According to patent US20030118627A1 (DABUR RESEARCH FOUNDATION, priority 2001, published 2003):

Tests used:
Assay type in all cases: cell-based
MOLT 4 = assay: MTT cytotoxicity assay, MOLT 4 leukemia; conditions: Homo sapiens; for IC50: 24 h, Molt 4 Leukemia, read-out: ED50 values of cytotoxicity; for cytotoxicity at 1000 µM / cytotoxicity at 2500 µM / cytotoxicity at 4000 µM / cytotoxicity at 5000 µM / cytotoxicity at 10000 µM: MOLT 4 Leukemia, read-out: Percent cytotoxicity; for cytotoxicity at 1000 µM: 1.0 mM; for cytotoxicity at 2500 µM: 2.5 mM; for cytotoxicity at 4000 µM: 4 mM; for cytotoxicity at 5000 µM: 5 mM; for cytotoxicity at 10000 µM: 10 mM
Protocol: (§1) Briefly, a […] MTT cytotoxicity assay was performed, which is based on the principle of uptake of MTT (3-(4,5-dimethylthiazol-2-yl)-2,5-diphenyl tetrazolium bromide), a tetrazolium salt, by the metabolically active cells where it is metabolized by active mitochondria into a blue colored formazan product that is read spectrophoto-metrically. MTT was dissolved in phosphate buffered saline with a pH of 7.4 to obtain an MTT concentration of 5 mg/ml; the resulting mixture was filtered through a 0.22 micron filter to sterilize and remove a small amount of insoluble residue. For each type of tumor cell, 20,000 to 50,000 cells were seeded in a 96-well culture plate and incubated with the combination in a CO2 incubator for 24 hours. […] The assay was terminated after 24 hours by adding 100 ug (20 ul) of MTT to each well, then incubating for additional one hour, and finally adding 50 ul of 10% SDS-0.01N HCl to each well to lyse the cells and dissolve formazan. After incubating for one hour, the plate was read spectrophotometrically at 540 nm and the percentage cytotoxicity calculated.

U87MG = assay: MTT cytotoxicity assay, U87MG glioblastoma; conditions: Homo sapiens, U-87 MG, 24 h, read-out: ED50 values of cytotoxicity
Protocol: as §1

293 = assay: MTT cytotoxicity assay, 293 kidney; conditions: Homo sapiens, HEK293, 24 h, read-out: ED50 values of cytotoxicity
Protocol: as §1

L132 = assay: MTT cytotoxicity assay, L132 lung; conditions: Homo sapiens; for cytotoxicity at 1000 µM: 1.0 mM; for cytotoxicity at 1000 µM / cytotoxicity at 2500 µM / cytotoxicity at 4000 µM / cytotoxicity at 5000 µM / cytotoxicity at 10000 µM: read-out: Percent cytotoxicity; for cytotoxicity at 2500 µM: 2.5 mM; for cytotoxicity at 4000 µM: 4 mM; for cytotoxicity at 5000 µM: 5 mM; for cytotoxicity at 10000 µM: 10 mM; for IC50: 24 h, read-out: ED50 values of cytotoxicity
Protocol: as §1

INT 407 = assay: MTT cytotoxicity assay, INT 407 intestine; conditions: Homo sapiens, 24 h, read-out: ED50 values of cytotoxicity
Protocol: as §1

DU145 = assay: MTT cytotoxicity assay, DU145 prostate; conditions: Homo sapiens; for cytotoxicity at 1000 µM: DU-145, 1.0 mM; for cytotoxicity at 1000 µM / cytotoxicity at 2500 µM / cytotoxicity at 4000 µM / cytotoxicity at 5000 µM / cytotoxicity at 10000 µM: read-out: Percent cytotoxicity; for cytotoxicity at 2500 µM: DU-145, 2.5 mM; for cytotoxicity at 4000 µM: DU-145, 4 mM; for cytotoxicity at 5000 µM: DU-145, 5 mM; for cytotoxicity at 10000 µM: DU-145, 10 mM; for IC50: DU-145, 24 h, read-out: ED50 values of cytotoxicity
Protocol: as §1

MCF7 = assay: MTT cytotoxicity assay, MCF7 breast; conditions: Homo sapiens; for IC50: MCF7, 24 h, MCF 7 Breast, read-out: ED50 values of cytotoxicity; for cytotoxicity at 1000 µM / cytotoxicity at 2500 µM / cytotoxicity at 4000 µM / cytotoxicity at 5000 µM / cytotoxicity at 10000 µM: MCF7 breast, read-out: Percent cytotoxicity; for cytotoxicity at 1000 µM: 1.0 mM; for cytotoxicity at 2500 µM: 2.5 mM; for cytotoxicity at 4000 µM: 4 mM; for cytotoxicity at 5000 µM: 5 mM; for cytotoxicity at 10000 µM: 10 mM
Protocol: as §1

Hep2 = assay: MTT cytotoxicity assay, Hep2 larynx; conditions: Homo sapiens, HEp-2, 24 h, read-out: ED50 values of cytotoxicity
Protocol: as §1

PA 1 = assay: MTT cytotoxicity assay, PA 1 ovary; conditions: Homo sapiens; for IC50: 24 h, PA 1 Ovarian, read-out: ED50 values of cytotoxicity; for cytotoxicity at 1000 µM / cytotoxicity at 2500 µM / cytotoxicity at 4000 µM / cytotoxicity at 5000 µM / cytotoxicity at 10000 µM: PA 1 Ovary, read-out: Percent cytotoxicity; for cytotoxicity at 1000 µM: 1.0 mM; for cytotoxicity at 2500 µM: 2.5 mM; for cytotoxicity at 4000 µM: 4 mM; for cytotoxicity at 5000 µM: 5 mM; for cytotoxicity at 10000 µM: 10 mM
Protocol: as §1

KB = assay: MTT cytotoxicity assay, KB oral; conditions: Homo sapiens, 24 h, read-out: ED50 values of cytotoxicity
Protocol: as §1

PTC = assay: MTT cytotoxicity assay, PTC colon; conditions: Homo sapiens; for cytotoxicity at 1000 µM: 1.0 mM; for cytotoxicity at 1000 µM / cytotoxicity at 2500 µM / cytotoxicity at 4000 µM / cytotoxicity at 5000 µM / cytotoxicity at 10000 µM: read-out: Percent cytotoxicity; for cytotoxicity at 2500 µM: 2.5 mM; for cytotoxicity at 4000 µM: 4 mM; for cytotoxicity at 5000 µM: 5 mM; for cytotoxicity at 10000 µM: 10 mM; for IC50: 24 h, read-out: ED50 values of cytotoxicity
Protocol: as §1

Miapaca2 = assay: MTT cytotoxicity assay, Miapaca2 pancreas; conditions: Homo sapiens; for cytotoxicity at 1000 µM: MIA PaCa-2, 1.0 mM; for cytotoxicity at 1000 µM / cytotoxicity at 2500 µM / cytotoxicity at 4000 µM / cytotoxicity at 5000 µM / cytotoxicity at 10000 µM: read-out: Percent cytotoxicity; for cytotoxicity at 2500 µM: MIA PaCa-2, 2.5 mM; for cytotoxicity at 4000 µM: MIA PaCa-2, 4 mM; for cytotoxicity at 5000 µM: MIA PaCa-2, 5 mM; for cytotoxicity at 10000 µM: MIA PaCa-2, 10 mM; for IC50: MIA PaCa-2, 24 h, read-out: ED50 values of cytotoxicity
Protocol: as §1

CC(=O)C(O)N1C(=O)CCC1C(=O)OCc1ccccc1 (stereo not shown) [MGC-3, N-(1-hydroxy-2-ketopropyl)-benzylpyroglutamate]
IC50 (MOLT 4): 1650 ± 500 µM
cytotoxicity at 1000 µM (MOLT 4): 42.1 ± 4.3%
cytotoxicity at 2500 µM (MOLT 4): 54.9 ± 4.3%
cytotoxicity at 4000 µM (MOLT 4): 65.9 ± 4.3%
cytotoxicity at 5000 µM (MOLT 4): 87.9 ± 7.3%
cytotoxicity at 10000 µM (MOLT 4): 88.3 ± 7.4%
IC50 (U87MG): > 5000 µM
IC50 293: 2000 ± 300 µM
cytotoxicity at 1000 µM (L132): 0%
cytotoxicity at 2500 µM (L132): 30 ± 2.9%
cytotoxicity at 4000 µM (L132): 45.8 ± 4.5%
cytotoxicity at 5000 µM (L132): 52.9 ± 5.2%
cytotoxicity at 10000 µM (L132): 79.4 ± 5.9%
IC50 (L132): 4600 ± 1600 µM
IC50 (INT 407): 2850 ± 700 µM
cytotoxicity at 1000 µM (DU145): 29.4 ± 4.2%
cytotoxicity at 2500 µM (DU145): 56.9 ± 4.3%
cytotoxicity at 4000 µM (DU145): 64.8 ± 6.3%
cytotoxicity at 5000 µM (DU145): 87.9 ± 8.3%
cytotoxicity at 10000 µM (DU145): 88.4 ± 4%
IC50 (DU145): 1800 ± 200 µM
IC50 (MCF7): > 5000 µM
cytotoxicity at 1000 µM (MCF7): 0%
cytotoxicity at 2500 µM (MCF7): 0%
cytotoxicity at 4000 µM (MCF7): 0%
cytotoxicity at 5000 µM (MCF7): 2.7 ± 0.1%
cytotoxicity at 10000 µM (MCF7): 12.4 ± 1%
IC50 (Hep2): 2600 µM
IC50 (PA 1): 1800 ± 600 µM
cytotoxicity at 1000 µM (PA 1): 42.8 ± 4.9%
cytotoxicity at 2500 µM (PA 1): 64.8 ± 5.9%
cytotoxicity at 4000 µM (PA 1): 66.9 ± 5.9%
cytotoxicity at 5000 µM (PA 1): 78.9 ± 7.4%
cytotoxicity at 10000 µM (PA 1): 88.5 ± 8.4%
IC50 (KB): 2550 ± 400 µM
cytotoxicity at 1000 µM (PTC): 0%
cytotoxicity at 2500 µM (PTC): 32.9 ± 3.8%
cytotoxicity at 4000 µM (PTC): 54.9 ± 3.8%
cytotoxicity at 5000 µM (PTC): 56.8 ± 5.7%
cytotoxicity at 10000 µM (PTC): 86.9 ± 7.6%
IC50 (PTC): 3800 ± 700 µM
cytotoxicity at 1000 µM (Miapaca2): 0%
cytotoxicity at 2500 µM (Miapaca2): 0%
cytotoxicity at 4000 µM (Miapaca2): 0%
cytotoxicity at 5000 µM (Miapaca2): 12.9 ± 1%
cytotoxicity at 10000 µM (Miapaca2): 14.1 ± 1.9%
IC50 (Miapaca2): > 5000 µM

CCCCOC(=O)C1CCC(=O)N1C(OC(C)=O)C(C)=O (stereo not shown) [MGC-5, N-(1-acetoxy-2-ketopropyl)-butylpyroglutamate]
IC50 (MOLT 4): 1500 ± 100 µM
cytotoxicity at 1000 µM (MOLT 4): 25.9 ± 2.9%
cytotoxicity at 2500 µM (MOLT 4): 61 ± 4.8%
cytotoxicity at 4000 µM (MOLT 4): 76 ± 7.1%
cytotoxicity at 5000 µM (MOLT 4): 82.9 ± 6.9%
cytotoxicity at 10000 µM (MOLT 4): 87.9 ± 6.9%
IC50 (U87MG): 3400 ± 1100 µM
IC50 293: 1900 ± 700 µM
cytotoxicity at 1000 µM (L132): 2.9 ± 0.1%
cytotoxicity at 2500 µM (L132): 36.9 ± 4.9%
cytotoxicity at 4000 µM (L132): 57.8 ± 4%
cytotoxicity at 5000 µM (L132): 59 ± 6%
cytotoxicity at 10000 µM (L132): 76.3 ± 5.4%
IC50 (L132): 3600 ± 1100 µM
IC50 (INT 407): 2600 ± 1100 µM
cytotoxicity at 1000 µM (DU145): 27.9 ± 0.4%
cytotoxicity at 2500 µM (DU145): 58.4 ± 5.9%
cytotoxicity at 4000 µM (DU145): 59 ± 4.3%
cytotoxicity at 5000 µM (DU145): 68.3 ± 4.6%
cytotoxicity at 10000 µM (DU145): 80 ± 7%
IC50 (DU145): 1900 ± 700 µM
IC50 (MCF7): 5000 ± 2100 µM
cytotoxicity at 1000 µM (MCF7): 0%
cytotoxicity at 2500 µM (MCF7): 0%
cytotoxicity at 4000 µM (MCF7): 34.9 ± 3.9%
cytotoxicity at 5000 µM (MCF7): 51.9 ± 3.8%
cytotoxicity at 10000 µM (MCF7): 58.7 ± 5%
IC50 (Hep2): 1900 µM
IC50 (PA 1): 1600 ± 100 µM
cytotoxicity at 1000 µM (PA 1): 31.8 ± 3.1%
cytotoxicity at 2500 µM (PA 1): 58.8 ± 5.3%
cytotoxicity at 4000 µM (PA 1): 83.9 ± 7.8%
cytotoxicity at 5000 µM (PA 1): 85.9 ± 6.2%
cytotoxicity at 10000 µM (PA 1): 86.9 ± 8.4%
IC50 (KB): 2000 ± 700 µM
cytotoxicity at 1000 µM (PTC): 2.9 ± 0.3%
cytotoxicity at 2500 µM (PTC): 37.9 ± 3.9%
cytotoxicity at 4000 µM (PTC): 53.9 ± 5.4%
cytotoxicity at 5000 µM (PTC): 85.9 ± 8.9%
cytotoxicity at 10000 µM (PTC): 89.2 ± 7.4%
IC50 (PTC): 3800 ± 900 µM
cytotoxicity at 1000 µM (Miapaca2): 0%
cytotoxicity at 2500 µM (Miapaca2): 24.8 ± 2.6%
cytotoxicity at 4000 µM (Miapaca2): 43.8 ± 3.9%
cytotoxicity at 5000 µM (Miapaca2): 54.9 ± 4.2%
cytotoxicity at 10000 µM (Miapaca2): 67.9 ± 4%
IC50 (Miapaca2): 4300 ± 1600 µM
